Measurements taken from the kinase profiling compilation of Christmann-Franck et al. (2016).

Tests used:
Experiment in all cases: KINOMEscan competition binding
Settings in all cases: compound 10.0 µM
MAP3K11 (human) = MAP3K11 (human) (UniProt Q16584)
EPHA3 (human) = EPHA3 (human) (UniProt P29320)
MAPK13 (human) = MAPK13 (human) (UniProt O15264)
AURKC (human) = AURKC (human) (UniProt Q9UQB9)
PIK3CD (human) = PIK3CD (human) (UniProt O00329)
ACVR2B (human) = ACVR2B (human) (UniProt Q13705)
WEE2 (human) = WEE2 (human) (UniProt P0C1S8)
WEE2 (human), sequence (P0C1S8 whole entry, looked up): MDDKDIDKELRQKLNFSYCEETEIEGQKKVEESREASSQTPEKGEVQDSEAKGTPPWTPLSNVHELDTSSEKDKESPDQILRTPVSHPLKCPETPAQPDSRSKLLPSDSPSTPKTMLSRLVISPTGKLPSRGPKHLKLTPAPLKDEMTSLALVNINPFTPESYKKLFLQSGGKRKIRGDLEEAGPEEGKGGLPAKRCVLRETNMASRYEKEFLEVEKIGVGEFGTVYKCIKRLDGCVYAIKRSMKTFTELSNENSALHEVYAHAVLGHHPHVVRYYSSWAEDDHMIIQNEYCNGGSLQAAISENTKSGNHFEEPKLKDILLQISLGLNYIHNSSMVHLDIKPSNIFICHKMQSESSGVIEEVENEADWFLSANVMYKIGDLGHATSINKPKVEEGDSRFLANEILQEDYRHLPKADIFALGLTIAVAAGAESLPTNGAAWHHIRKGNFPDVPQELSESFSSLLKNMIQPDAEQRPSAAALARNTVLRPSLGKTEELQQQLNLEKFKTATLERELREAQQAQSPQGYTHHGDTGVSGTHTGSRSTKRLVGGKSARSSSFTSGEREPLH

MYLK4 (human) = MYLK4 (human) (UniProt Q86YV6)
DAPK3 (human) = DAPK3 (human) (UniProt O43293)
PHKG2 (human) = PHKG2 (human) (UniProt P15735)
STK17A (human) = STK17A (human) (UniProt Q9UEE5)
PKMYT1 (human) = PKMYT1 (human) (UniProt Q99640)
TYRO3 (human) = TYRO3 (human) (UniProt Q06418)
RPS6KA1 KD1 (human) = RPS6KA1 KD1 (human) (UniProt Q15418)
NLK (human) = NLK (human) (UniProt Q9UBE8)
ACVRL1 (human) = ACVRL1 (human) (UniProt P37023)
ACVRL1 (human), sequence (P37023 whole entry, looked up): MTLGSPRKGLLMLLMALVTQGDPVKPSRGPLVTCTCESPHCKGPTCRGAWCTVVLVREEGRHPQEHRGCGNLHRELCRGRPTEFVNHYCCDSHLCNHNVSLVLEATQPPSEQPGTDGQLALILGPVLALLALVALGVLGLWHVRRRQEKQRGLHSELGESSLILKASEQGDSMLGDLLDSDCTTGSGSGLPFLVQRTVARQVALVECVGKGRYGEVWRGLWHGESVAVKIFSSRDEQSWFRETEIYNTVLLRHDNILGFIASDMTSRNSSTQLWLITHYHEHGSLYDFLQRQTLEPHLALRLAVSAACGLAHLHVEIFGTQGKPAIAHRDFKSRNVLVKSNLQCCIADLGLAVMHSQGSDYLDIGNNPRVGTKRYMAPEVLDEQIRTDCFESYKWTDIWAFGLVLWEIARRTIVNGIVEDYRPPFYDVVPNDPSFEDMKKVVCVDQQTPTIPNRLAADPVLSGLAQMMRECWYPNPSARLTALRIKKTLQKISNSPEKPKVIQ

PAK4 (human) = PAK4 (human) (UniProt O96013)
AURKA (human) = AURKA (human) (UniProt O14965)
FES (human) = FES (human) (UniProt P07332)
CSNK1G3 (human) = CSNK1G3 (human) (UniProt Q9Y6M4)
MAP3K10 (human) = MAP3K10 (human) (UniProt Q02779)
TXK (human) = TXK (human) (UniProt P42681)
CDKL2 (human) = CDKL2 (human) (UniProt Q92772)
[1] = target: JAK1 JH2 pseudokinase (human) (UniProt P23458)
JAK1 JH2 pseudokinase (human), sequence (P23458 whole entry, looked up): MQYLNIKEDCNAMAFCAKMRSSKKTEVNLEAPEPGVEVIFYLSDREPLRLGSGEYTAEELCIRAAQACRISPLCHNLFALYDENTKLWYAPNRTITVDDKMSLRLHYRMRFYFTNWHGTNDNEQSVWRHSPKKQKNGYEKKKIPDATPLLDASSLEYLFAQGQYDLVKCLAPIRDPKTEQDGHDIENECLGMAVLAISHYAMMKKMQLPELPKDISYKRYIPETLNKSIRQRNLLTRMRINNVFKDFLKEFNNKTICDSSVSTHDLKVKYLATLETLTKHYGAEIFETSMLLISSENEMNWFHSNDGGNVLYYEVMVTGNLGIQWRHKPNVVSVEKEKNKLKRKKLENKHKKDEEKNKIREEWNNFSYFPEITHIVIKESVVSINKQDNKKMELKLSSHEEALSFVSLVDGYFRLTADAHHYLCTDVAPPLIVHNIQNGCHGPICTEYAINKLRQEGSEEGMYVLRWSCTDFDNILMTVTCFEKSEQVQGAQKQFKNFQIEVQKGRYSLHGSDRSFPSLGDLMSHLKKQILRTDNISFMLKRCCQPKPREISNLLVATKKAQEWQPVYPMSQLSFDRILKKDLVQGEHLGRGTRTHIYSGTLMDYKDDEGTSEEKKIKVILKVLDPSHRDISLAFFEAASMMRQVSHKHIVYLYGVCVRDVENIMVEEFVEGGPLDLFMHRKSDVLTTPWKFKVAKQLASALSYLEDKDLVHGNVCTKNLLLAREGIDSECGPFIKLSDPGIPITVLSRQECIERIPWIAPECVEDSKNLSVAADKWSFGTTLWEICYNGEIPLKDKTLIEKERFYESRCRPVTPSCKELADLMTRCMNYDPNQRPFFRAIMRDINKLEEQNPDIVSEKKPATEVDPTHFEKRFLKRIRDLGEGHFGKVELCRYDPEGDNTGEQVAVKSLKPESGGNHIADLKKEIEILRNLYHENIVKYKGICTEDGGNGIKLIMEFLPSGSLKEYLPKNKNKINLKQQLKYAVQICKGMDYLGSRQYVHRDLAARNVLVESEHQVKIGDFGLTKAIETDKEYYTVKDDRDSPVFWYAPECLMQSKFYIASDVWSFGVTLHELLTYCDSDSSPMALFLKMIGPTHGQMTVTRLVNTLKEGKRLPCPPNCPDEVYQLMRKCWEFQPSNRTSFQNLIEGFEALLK

STK32C (human) = STK32C (human) (UniProt Q86UX6)
ACVR1B (human) = ACVR1B (human) (UniProt P36896)
DYRK1B (human) = DYRK1B (human) (UniProt Q9Y463)
MARK2 (human) = MARK2 (human) (UniProt Q7KZI7)
AKT1 (human) = AKT1 (human) (UniProt P31749)
FLT4 (human) = FLT4 (human) (UniProt P35916)
RPS6KA5 KD1 (human) = RPS6KA5 KD1 (human) (UniProt O75582)
DDR2 (human) = DDR2 (human) (UniProt Q16832)
[2] = target: JAK3 JH1 catalytic (human) (UniProt P52333)
CDK18 (human) = CDK18 (human) (UniProt Q07002)
SYK (human) = SYK (human) (UniProt P43405)
MKNK1 (human) = MKNK1 (human) (UniProt Q9BUB5)
MYO3A (human) = MYO3A (human) (UniProt Q8NEV4)
MYO3A (human), sequence (Q8NEV4 whole entry, looked up): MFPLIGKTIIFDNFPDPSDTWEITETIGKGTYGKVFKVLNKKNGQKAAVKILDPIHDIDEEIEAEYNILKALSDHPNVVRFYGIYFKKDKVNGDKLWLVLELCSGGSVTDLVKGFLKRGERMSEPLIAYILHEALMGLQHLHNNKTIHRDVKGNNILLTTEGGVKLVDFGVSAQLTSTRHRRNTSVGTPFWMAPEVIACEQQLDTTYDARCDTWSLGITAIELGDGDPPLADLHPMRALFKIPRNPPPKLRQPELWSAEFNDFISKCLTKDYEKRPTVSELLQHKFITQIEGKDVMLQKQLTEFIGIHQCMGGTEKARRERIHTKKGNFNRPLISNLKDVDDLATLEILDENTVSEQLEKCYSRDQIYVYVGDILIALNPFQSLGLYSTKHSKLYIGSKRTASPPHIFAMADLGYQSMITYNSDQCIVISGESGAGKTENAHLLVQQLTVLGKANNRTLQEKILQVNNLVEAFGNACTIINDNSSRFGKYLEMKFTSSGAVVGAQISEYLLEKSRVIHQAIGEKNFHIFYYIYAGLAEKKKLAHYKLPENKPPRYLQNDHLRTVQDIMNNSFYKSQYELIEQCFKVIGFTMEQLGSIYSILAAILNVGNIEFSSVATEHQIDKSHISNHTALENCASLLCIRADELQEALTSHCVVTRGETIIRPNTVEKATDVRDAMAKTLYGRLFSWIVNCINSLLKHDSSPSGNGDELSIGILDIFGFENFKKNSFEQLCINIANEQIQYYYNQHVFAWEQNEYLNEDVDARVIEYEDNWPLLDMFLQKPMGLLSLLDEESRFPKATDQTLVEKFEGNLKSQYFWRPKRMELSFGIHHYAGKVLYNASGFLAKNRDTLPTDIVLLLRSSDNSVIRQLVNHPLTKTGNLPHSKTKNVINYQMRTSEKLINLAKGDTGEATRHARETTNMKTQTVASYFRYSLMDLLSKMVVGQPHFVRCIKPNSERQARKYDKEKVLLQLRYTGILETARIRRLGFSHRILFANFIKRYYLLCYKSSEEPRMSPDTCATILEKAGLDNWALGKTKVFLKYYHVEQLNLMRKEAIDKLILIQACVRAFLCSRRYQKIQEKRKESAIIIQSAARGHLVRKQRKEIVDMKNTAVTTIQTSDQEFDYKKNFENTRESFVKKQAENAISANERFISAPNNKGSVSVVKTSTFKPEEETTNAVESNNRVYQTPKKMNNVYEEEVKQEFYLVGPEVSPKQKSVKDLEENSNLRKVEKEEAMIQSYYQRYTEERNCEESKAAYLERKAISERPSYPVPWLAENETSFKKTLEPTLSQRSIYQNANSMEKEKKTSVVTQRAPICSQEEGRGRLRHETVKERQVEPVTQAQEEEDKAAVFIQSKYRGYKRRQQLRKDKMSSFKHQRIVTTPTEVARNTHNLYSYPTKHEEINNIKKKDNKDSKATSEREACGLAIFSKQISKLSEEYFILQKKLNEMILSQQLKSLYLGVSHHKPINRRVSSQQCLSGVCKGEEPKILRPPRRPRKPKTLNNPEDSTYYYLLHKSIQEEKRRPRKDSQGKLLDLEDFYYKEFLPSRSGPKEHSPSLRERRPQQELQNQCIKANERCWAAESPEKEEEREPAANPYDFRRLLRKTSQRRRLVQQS

EPHB4 (human) = EPHB4 (human) (UniProt P54760)
STK3 (human) = STK3 (human) (UniProt Q13188)
EIF2AK2 (human) = EIF2AK2 (human) (UniProt P19525)

EPHA3 (human), sequence (P29320 whole entry, looked up): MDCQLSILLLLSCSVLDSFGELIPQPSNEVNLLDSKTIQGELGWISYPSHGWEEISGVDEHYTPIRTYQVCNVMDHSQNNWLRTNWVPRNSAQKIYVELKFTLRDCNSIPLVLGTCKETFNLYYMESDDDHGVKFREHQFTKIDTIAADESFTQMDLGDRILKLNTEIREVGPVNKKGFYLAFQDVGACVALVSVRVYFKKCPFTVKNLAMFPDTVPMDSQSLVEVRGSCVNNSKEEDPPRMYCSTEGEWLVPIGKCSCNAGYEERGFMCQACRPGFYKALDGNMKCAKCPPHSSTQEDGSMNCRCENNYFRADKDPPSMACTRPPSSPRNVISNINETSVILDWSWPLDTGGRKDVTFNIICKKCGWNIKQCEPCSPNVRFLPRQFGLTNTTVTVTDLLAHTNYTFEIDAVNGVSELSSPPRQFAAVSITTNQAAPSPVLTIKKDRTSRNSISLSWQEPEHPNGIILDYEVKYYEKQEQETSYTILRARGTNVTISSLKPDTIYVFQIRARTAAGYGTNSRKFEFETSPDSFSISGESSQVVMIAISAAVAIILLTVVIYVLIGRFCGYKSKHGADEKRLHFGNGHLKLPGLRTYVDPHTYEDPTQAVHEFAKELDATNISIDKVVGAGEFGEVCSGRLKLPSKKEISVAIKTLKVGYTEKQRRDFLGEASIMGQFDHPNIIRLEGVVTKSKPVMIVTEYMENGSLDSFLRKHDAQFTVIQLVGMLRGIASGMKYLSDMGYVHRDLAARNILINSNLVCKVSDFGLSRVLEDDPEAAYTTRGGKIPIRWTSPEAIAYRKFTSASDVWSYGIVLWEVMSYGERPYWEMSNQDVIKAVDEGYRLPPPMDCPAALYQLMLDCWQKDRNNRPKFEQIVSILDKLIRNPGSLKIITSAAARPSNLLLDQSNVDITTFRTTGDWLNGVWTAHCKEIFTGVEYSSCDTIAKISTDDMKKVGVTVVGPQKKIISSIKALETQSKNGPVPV

Compound	kinase still bound, per cent of control (MAP3K11 (human)) [%]	kinase still bound, per cent of control (EPHA3 (human)) [%]	kinase still bound, per cent of control (MAPK13 (human)) [%]	kinase still bound, per cent of control (AURKC (human)) [%]	kinase still bound, per cent of control (PIK3CD (human)) [%]	kinase still bound, per cent of control (ACVR2B (human)) [%]	kinase still bound, per cent of control (WEE2 (human)) [%]	kinase still bound, per cent of control (MYLK4 (human)) [%]	kinase still bound, per cent of control (DAPK3 (human)) [%]	kinase still bound, per cent of control (PHKG2 (human)) [%]	kinase still bound, per cent of control (STK17A (human)) [%]	kinase still bound, per cent of control (PKMYT1 (human)) [%]	kinase still bound, per cent of control (TYRO3 (human)) [%]	kinase still bound, per cent of control (RPS6KA1 KD1 (human)) [%]	kinase still bound, per cent of control (NLK (human)) [%]	kinase still bound, per cent of control (ACVRL1 (human)) [%]	kinase still bound, per cent of control (PAK4 (human)) [%]	kinase still bound, per cent of control (AURKA (human)) [%]	kinase still bound, per cent of control (FES (human)) [%]	kinase still bound, per cent of control (CSNK1G3 (human)) [%]	also measured
Cn1c(=O)n(-c2ccc(C(C)(C)C#N)cc2)c2c3cc(-c4cnc5ccccc5c4)ccc3ncc21	100	100	100	100	7.2	100	100	100	100	100	100	100	100	100	100	100	100	100	100	100	kinase still bound, per cent of control (MAP3K10 (human)): 100%; kinase still bound, per cent of control (TXK (human)): 100%; kinase still bound, per cent of control (CDKL2 (human)): 28%; kinase still bound, per cent of control [1]: 100%; kinase still bound, per cent of control (STK32C (human)): 100%; kinase still bound, per cent of control (ACVR1B (human)): 100%; kinase still bound, per cent of control (DYRK1B (human)): 100%; kinase still bound, per cent of control (MARK2 (human)): 100%; kinase still bound, per cent of control (AKT1 (human)): 100%; kinase still bound, per cent of control (FLT4 (human)): 100%; kinase still bound, per cent of control (RPS6KA5 KD1 (human)): 100%; kinase still bound, per cent of control (DDR2 (human)): 100%; kinase still bound, per cent of control [2]: 100%; kinase still bound, per cent of control (CDK18 (human)): 100%; kinase still bound, per cent of control (SYK (human)): 100%; kinase still bound, per cent of control (MKNK1 (human)): 100%; kinase still bound, per cent of control (MYO3A (human)): 100%; kinase still bound, per cent of control (EPHB4 (human)): 100%; kinase still bound, per cent of control (STK3 (human)): 100%; kinase still bound, per cent of control (EIF2AK2 (human)): 100%
OCCCNc1cc(-c2ccnc(Nc3cccc(Cl)c3)n2)ccn1	100	100	100	100	100	100	100	100	100	100	100	100	100	100	100	100	100	100	100	100	kinase still bound, per cent of control (MAP3K10 (human)): 100%; kinase still bound, per cent of control (TXK (human)): 100%; kinase still bound, per cent of control (CDKL2 (human)): 14%; kinase still bound, per cent of control [1]: 100%; kinase still bound, per cent of control (STK32C (human)): 100%; kinase still bound, per cent of control (ACVR1B (human)): 100%; kinase still bound, per cent of control (DYRK1B (human)): 4%; kinase still bound, per cent of control (MARK2 (human)): 100%; kinase still bound, per cent of control (AKT1 (human)): 100%; kinase still bound, per cent of control (FLT4 (human)): 100%; kinase still bound, per cent of control (RPS6KA5 KD1 (human)): 100%; kinase still bound, per cent of control (DDR2 (human)): 100%; kinase still bound, per cent of control [2]: 100%; kinase still bound, per cent of control (CDK18 (human)): 100%; kinase still bound, per cent of control (SYK (human)): 100%; kinase still bound, per cent of control (MKNK1 (human)): 100%; kinase still bound, per cent of control (MYO3A (human)): 100%; kinase still bound, per cent of control (EPHB4 (human)): 100%; kinase still bound, per cent of control (STK3 (human)): 100%; kinase still bound, per cent of control (EIF2AK2 (human)): 100%
O=C(NC1CC1)c1cccc(-c2ccc3c(NC(=O)C4CC4)n[nH]c3c2)c1	100	64	5	8.6	85	84	100	42	69	84	96	77	100	81	31	100	79	86	100	98	kinase still bound, per cent of control (MAP3K10 (human)): 95%; kinase still bound, per cent of control (TXK (human)): 77%; kinase still bound, per cent of control (CDKL2 (human)): 8.6%; kinase still bound, per cent of control [1]: 84%; kinase still bound, per cent of control (STK32C (human)): 89%; kinase still bound, per cent of control (ACVR1B (human)): 59%; kinase still bound, per cent of control (DYRK1B (human)): 89%; kinase still bound, per cent of control (MARK2 (human)): 45%; kinase still bound, per cent of control (AKT1 (human)): 100%; kinase still bound, per cent of control (FLT4 (human)): 100%; kinase still bound, per cent of control (RPS6KA5 KD1 (human)): 100%; kinase still bound, per cent of control (DDR2 (human)): 90%; kinase still bound, per cent of control [2]: 27%; kinase still bound, per cent of control (CDK18 (human)): 58%; kinase still bound, per cent of control (SYK (human)): 100%; kinase still bound, per cent of control (MKNK1 (human)): 69%; kinase still bound, per cent of control (MYO3A (human)): 72%; kinase still bound, per cent of control (EPHB4 (human)): 100%; kinase still bound, per cent of control (STK3 (human)): 100%; kinase still bound, per cent of control (EIF2AK2 (human)): 85%
